Assay results taken from ChEMBL document CHEMBL3885861, “Open TG-GATES”.

Organism: Rattus norvegicus
Assay: Open TG-GATES - Regimen: Single
Type: toxicity, organism-based, Sprague-Dawley
Design: regimen Single, gender Male, age 6 weeks
Details: in vivo, po, 0 mg/kg, route gavage, dose level Control; for APTT / Bas / Eos / Fbg / Hb / Ht / Lym / MCHC / MCV / Mono / Neu / PT / Plat / RBC / Ret / WBC: tissue Blood; for KIDNEY_L / KIDNEY_R / KIDNEY_TOTAL: tissue Kidney; for LIVER: tissue Liver; for ALP / ALT / AST / BUN / CRE / Ca / Cl / DBIL / GLC / IP / K / LDH / Na / PL / RALB / TBIL / TC / TG / TP / gamma-GTP: tissue Plasma

C1CCC(C(CC2CCCCN2)C2CCCCC2)CC1 (centres undefined) [PERHEXILINE]
TERMINAL_BW (3 h): 206.4 g | APTT (3 h): 21.3 s | Bas (3 h): 0% | Eos (3 h): 0.6% | Fbg (3 h): 324 mg/dL | Hb (3 h): 13.5 g/dL | Ht (3 h): 39.5% | Lym (3 h): 80.6% | MCHC (3 h): 34% | MCV (3 h): 62.3 fL | Mono (3 h): 1.4% | Neu (3 h): 16.8% | PT (3 h): 16 s | Plat (3 h): 117.8 x10_4/uL | RBC (3 h): 634.6 x10_4/ul | Ret (3 h): 6.3% | WBC (3 h): 77.4 x10_2/uL | KIDNEY_L (3 h): 0.9 g | KIDNEY_R (3 h): 0.9 g | KIDNEY_TOTAL (3 h): 1.8 g | LIVER (3 h): 9.2 g | ALP (3 h): 1964.4 IU/L | ALT (3 h): 42.6 IU/L | AST (3 h): 70.8 IU/L | BUN (3 h): 14.8 mg/dL | CRE (3 h): 0.1 mg/dL | Ca (3 h): 10.9 mg/dL | Cl (3 h): 106.8 meq/L | DBIL (3 h): 0.002 mg/dL | GLC (3 h): 192.6 mg/dL | IP (3 h): 7.8 mg/dL | K (3 h): 4.2 meq/L | LDH (3 h): 147.6 IU/L | Na (3 h): 140.4 meq/L | PL (3 h): 144.4 mg/dL | RALB (3 h): 3.2 g/dL | TBIL (3 h): 0.014 mg/dL | TC (3 h): 79.8 mg/dL | TG (3 h): 63.4 mg/dL | TP (3 h): 5.7 g/dL | gamma-GTP (3 h): 0.8 IU/L | TERMINAL_BW (6 h): 210.1 g | APTT (6 h): 20.9 s | Bas (6 h): 0% | Eos (6 h): 0.4% | Fbg (6 h): 317.4 mg/dL | Hb (6 h): 13.2 g/dL | Ht (6 h): 39.3% | Lym (6 h): 79.8% | MCHC (6 h): 33.6% | MCV (6 h): 65.6 fL | Mono (6 h): 2.2% | Neu (6 h): 16.6% | PT (6 h): 15.7 s | Plat (6 h): 130.2 x10_4/uL | RBC (6 h): 599.8 x10_4/ul | Ret (6 h): 7.4% | WBC (6 h): 75.5 x10_2/uL | KIDNEY_L (6 h): 1 g | KIDNEY_R (6 h): 1 g | KIDNEY_TOTAL (6 h): 1.9 g | LIVER (6 h): 9.3 g | ALP (6 h): 1510 IU/L | ALT (6 h): 37.8 IU/L | AST (6 h): 67.8 IU/L | BUN (6 h): 11.4 mg/dL | CRE (6 h): 0.1 mg/dL | Ca (6 h): 10.8 mg/dL | Cl (6 h): 105.2 meq/L | DBIL (6 h): 0 mg/dL | GLC (6 h): 178.8 mg/dL | IP (6 h): 9.8 mg/dL | K (6 h): 4 meq/L | LDH (6 h): 239.2 IU/L | Na (6 h): 140.4 meq/L | PL (6 h): 147.8 mg/dL | RALB (6 h): 3 g/dL | TBIL (6 h): 0.018 mg/dL | TC (6 h): 81.2 mg/dL | TG (6 h): 77.4 mg/dL | TP (6 h): 5.6 g/dL | gamma-GTP (6 h): 1 IU/L | TERMINAL_BW (9 h): 206.4 g | APTT (9 h): 21.8 s | Bas (9 h): 0% | Eos (9 h): 0.6% | Fbg (9 h): 319 mg/dL | Hb (9 h): 13.2 g/dL | Ht (9 h): 39.2% | Lym (9 h): 75.8% | MCHC (9 h): 33.7% | MCV (9 h): 64.6 fL | Mono (9 h): 1.8% | Neu (9 h): 20.4% | PT (9 h): 15.6 s | Plat (9 h): 131 x10_4/uL | RBC (9 h): 606.6 x10_4/ul | Ret (9 h): 7.3% | WBC (9 h): 89.6 x10_2/uL | KIDNEY_L (9 h): 0.9 g | KIDNEY_R (9 h): 1 g | KIDNEY_TOTAL (9 h): 1.9 g | LIVER (9 h): 9.2 g | ALP (9 h): 1422.6 IU/L | ALT (9 h): 33.8 IU/L | AST (9 h): 62.2 IU/L | BUN (9 h): 11.4 mg/dL | CRE (9 h): 0.1 mg/dL | Ca (9 h): 10.9 mg/dL | Cl (9 h): 105.6 meq/L | DBIL (9 h): 0 mg/dL | GLC (9 h): 193.8 mg/dL | IP (9 h): 9.4 mg/dL | K (9 h): 3.9 meq/L | LDH (9 h): 196.4 IU/L | Na (9 h): 139.6 meq/L | PL (9 h): 135.6 mg/dL | RALB (9 h): 3 g/dL | TBIL (9 h): 0.012 mg/dL | TC (9 h): 76.4 mg/dL | TG (9 h): 70 mg/dL | TP (9 h): 5.6 g/dL | gamma-GTP (9 h): 0.8 IU/L | TERMINAL_BW (24 h): 228.6 g | APTT (24 h): 20.7 s | Bas (24 h): 0% | Eos (24 h): 0.8% | Fbg (24 h): 315.6 mg/dL | Hb (24 h): 13.1 g/dL | Ht (24 h): 39.4% | Lym (24 h): 74.8% | MCHC (24 h): 33.3% | MCV (24 h): 65.2 fL | Mono (24 h): 2.4% | Neu (24 h): 21.2% | PT (24 h): 16 s | Plat (24 h): 120.5 x10_4/uL | RBC (24 h): 604.2 x10_4/ul | Ret (24 h): 7.2% | WBC (24 h): 89.3 x10_2/uL | KIDNEY_L (24 h): 1 g | KIDNEY_R (24 h): 1 g | KIDNEY_TOTAL (24 h): 2.1 g | LIVER (24 h): 11.2 g | ALP (24 h): 1688.8 IU/L | ALT (24 h): 42.6 IU/L | AST (24 h): 66.4 IU/L | BUN (24 h): 16.8 mg/dL | CRE (24 h): 0.1 mg/dL | Ca (24 h): 11 mg/dL | Cl (24 h): 105.4 meq/L | DBIL (24 h): 0 mg/dL | GLC (24 h): 196.6 mg/dL | IP (24 h): 7.1 mg/dL | K (24 h): 4.3 meq/L | LDH (24 h): 177.6 IU/L | Na (24 h): 141.6 meq/L | PL (24 h): 154.2 mg/dL | RALB (24 h): 3.2 g/dL | TBIL (24 h): 0.014 mg/dL | TC (24 h): 76.8 mg/dL | TG (24 h): 149.4 mg/dL | TP (24 h): 5.7 g/dL | gamma-GTP (24 h): 1 IU/L
